Laboratory results: US20120064072A1, “Combination Cancer Therapy Comprising Administration of an EGFR Inhibitor and an IGF-1R Inhibitor” (priority 2009, published 2012)

Columns and labels:
[1] = system: GEO (CRC) human tumor xenograft; experiment: Treatment beyond progression (TBP), GEO xenograft model; assay type: in vivo, mice; settings: after progression on 18 days erlotinib, erlotinib maintenance 100 mg/kg per day, or with OSI-906 15 mg/kg per day added, FIG. 4
Procedure: The H292 (NSCLC) and GEO (CRC) human tumor xenograft models were used to evaluate the efficacy of EGFR inhibitor (erlotinib) maintenance therapy with and without the addition of IGF-1R inhibitor (OSI-906) therapy following response and subsequent progression on erlotinib monotherapy.
Anti-tumor efficacy was evaluated using mouse xenograft tumor models derived from GEO and H292 cells. Female athymic nude nu/nu CD-1 mice (6-8 wks, 22-29 g) were obtained from Charles River Laboratories (Wilmington, Mass.). Animals were allowed to acclimate for a minimum of one week prior to initiation of a study. […] Tumor cells were harvested from cell culture flasks during exponential cell growth, washed twice with sterile PBS, counted and resuspended in PBS to a suitable concentration before s.c. implantation on the right flank of female nu/nu CD-1 mice. […] Body weights were determined twice weekly along with tumor volume {V=[length×(width)^2]/2} measurements using Vernier calipers during the study. Tumor growth inhibition (% TGI) was determined by the following formula: % TGI={1−[(Tt/T0)/(Ct/C0)]/1-[C0/Ct]}×100. […] Furthermore, we evaluated the effect of drug treatment on tumor growth delay (GD or T-C value), defined as the difference in time (days) required for the treated tumors (T) to reach 400% of the initial tumor volume compared with those of the control group (C). […]

[2] = system: H292 (NSCLC) human tumor xenograft; experiment: Treatment beyond progression (TBP), H292 xenograft model; assay type: in vivo, mice
Procedure: Anti-tumor efficacy was evaluated using mouse xenograft tumor models derived from GEO and H292 cells. Female athymic nude nu/nu CD-1 mice (6-8 wks, 22-29 g) were obtained from Charles River Laboratories (Wilmington, Mass.). Animals were allowed to acclimate for a minimum of one week prior to initiation of a study. Throughout the studies, animals were allowed sterile rodent chow and water ad libitum, and immunocompromised animals were maintained under specific pathogen free conditions. […] Tumor cells were harvested from cell culture flasks during exponential cell growth, washed twice with sterile PBS, counted and resuspended in PBS to a suitable concentration before s.c. implantation on the right flank of female nu/nu CD-1 mice. Tumors were established to 200+/−50 mm^3 in size before randomization into treatment groups of 8 mice each. Body weights were determined twice weekly along with tumor volume {V=[length×(width)^2]/2} measurements using Vernier calipers during the study. Tumor growth inhibition (% TGI) was determined by the following formula: % TGI={1−[(Tt/T0)/(Ct/C0)]/1-[C0/Ct]}×100. Tt is tumor volume of treated at time t; T0 is tumor volume of treated at time 0; Ct is tumor volume of control at time t; and C0 is tumor volume of control at time 0. […] Furthermore, we evaluated the effect of drug treatment on tumor growth delay (GD or T-C value), defined as the difference in time (days) required for the treated tumors (T) to reach 400% of the initial tumor volume compared with those of the control group (C). […] At the time of tumor progression on single agent erlotinib treatment mice were randomized into additional study groups of 8 mice each. Individual tumor volumes were calculated, as stated above, for all mice throughout the study and the time in days until each mouse doubled its tumor volume from the time of re-randomization was determined by linear regression analysis of the entire data set. Statistical evaluation of the data was determined by Kaplan-Meier Survival analysis.
In two separate experiments (FIGS. 9-11 and FIGS. 13-15), NCI-H292 cells were harvested from cell culture flasks during exponential cell growth, washed twice with sterile PBS, counted and resuspended in PBS to a suitable concentration before s.c. implantation on the right flank of female nu/nu CD-1 mice. Tumors were established to 200+/−50 mm^3 in size before randomization into vehicle control or erlotinib treatment groups.

[3] = system: H292 (NSCLC) human tumor xenograft; experiment: Frontline combination treatment, H292 xenograft model; assay type: in vivo, mice; settings: by 100 days
Procedure: Anti-tumor efficacy was evaluated using mouse xenograft tumor models derived from GEO and H292 cells. Female athymic nude nu/nu CD-1 mice (6-8 wks, 22-29 g) were obtained from Charles River Laboratories (Wilmington, Mass.). Animals were allowed to acclimate for a minimum of one week prior to initiation of a study. Throughout the studies, animals were allowed sterile rodent chow and water ad libitum, and immunocompromised animals were maintained under specific pathogen free conditions. […] Tumor cells were harvested from cell culture flasks during exponential cell growth, washed twice with sterile PBS, counted and resuspended in PBS to a suitable concentration before s.c. implantation on the right flank of female nu/nu CD-1 mice. […] Body weights were determined twice weekly along with tumor volume {V=[length×(width)^2]/2} measurements using Vernier calipers during the study. Tumor growth inhibition (% TGI) was determined by the following formula: % TGI={1−[(Tt/T0)/(Ct/C0)]/1-[C0/Ct]}×100. […] Furthermore, we evaluated the effect of drug treatment on tumor growth delay (GD or T-C value), defined as the difference in time (days) required for the treated tumors (T) to reach 400% of the initial tumor volume compared with those of the control group (C). […] Statistical evaluation of the data was determined by Kaplan-Meier Survival analysis.

pIGF-1R [4] = experiment: RTK array analysis, GEO model; assay type: in vivo, human; settings: erlotinib 100 mg/kg per day for eighteen days, all treated tumors, FIG. 1
Procedure: (§1) In untreated GEO tumors and tumors treated with erlotinib (100 mg/kg per day) for eighteen days, the levels of pEGFR, pIGF-1R, and pIR were measured in terms of median pixel density, as shown in FIG. 1.

pIR [5] = experiment: RTK array analysis, GEO model; assay type: in vivo, human; settings: erlotinib 100 mg/kg per day for eighteen days, all treated tumors, FIG. 1
Procedure: as §1

pIGF-1R [6] = experiment: RTK array analysis, H292 model; assay type: in vivo, human; settings: H292 tumors, erlotinib 100 mg/kg per day eighteen days, progressor tumors vs untreated or non-progressor; FIG. 5
Procedure: (§2) In untreated H292 tumors and tumors treated with erlotinib (100 mg/kg per day) for eighteen days, the levels of pIGF-1R and pIR were measured in terms of pixel density normalized to phosphotyrosine loading control, as shown in FIG. 5. Tumors that initially responded and then progressed (progressor) show upregulation of both pIGF-1R and pIR as compared to untreated tumors or tumors that continue to respond to erlotinib treatment (non-progressor).

pIR [7] = experiment: RTK array analysis, H292 model; assay type: in vivo, human; settings: H292 tumors, erlotinib 100 mg/kg per day eighteen days, progressor tumors vs untreated or non-progressor; FIG. 5
Procedure: as §2

Akt [8] = experiment: GEO model Western blot analysis; assay type: in vivo, human; settings: erlotinib 100 mg/kg per day eighteen days, FIG. 2
Procedure: (§3) In untreated GEO tumors and tumors treated with erlotinib (100 mg/kg per day) for eighteen days, the levels of total and phosphorylated Akt and Erk were measured and quantitated in terms of the ratio of phosphor to total protein in each sample and then plotted as compared to levels observed in vehicle control treated tumors (assumed to be 100%).

Erk [9] = experiment: GEO model Western blot analysis; assay type: in vivo, human; settings: erlotinib 100 mg/kg per day eighteen days, FIG. 2
Procedure: as §3

Akt [10] = experiment: H292 model Western blot analysis; assay type: in vivo, human; settings: H292, erlotinib 100 mg/kg per day eighteen days, FIG. 6
Procedure: as §3, with “H292” for “GEO”

Erk [11] = experiment: H292 model Western blot analysis; assay type: in vivo, human; settings: H292, erlotinib 100 mg/kg per day eighteen days, FIG. 6
Procedure: as §3, with “H292” for “GEO”

[12] = tumors that do not progress on treatment
[13] = tumors that respond and then progress on treatment
[14] = OSI-906 50 mg/kg per day after taking off erlotinib

## C#Cc1cccc(Nc2ncnc3cc(OCCOC)c(OCCOC)cc23)c1 [erlotinib, [6,7-bis(2-methoxyethoxy)-4-quinazolin-4-yl]-(3-ethynylphenyl)amine]
[1]
  median time to tumor doubling following the re-sorting: about 28 days
[2]; first trial, FIG. 10, Kaplan-Meier, after 28 days erlotinib 100 mg/kg per day, combination = erlotinib + OSI-906 15 or 10 mg/kg
  median time to one doubling: 20.9 days
[2]; first trial, FIG. 11, Kaplan-Meier, combination = erlotinib + OSI-906 15 or 10 mg/kg
  median time to two doublings: 41.5 days
[2]; second trial, FIG. 14, Kaplan-Meier
  median time to one doubling: 20.9 days
[2]; second trial, FIG. 15, Kaplan-Meier
  median time to two doublings: 45.8 days
[3]
  mice that doubled their tumor volumes twice: 7 of 8
pIGF-1R [4]
  level of pIGF-1R (median pixel density) compared to untreated tumors: upregulation
pIR [5]
  level of pIR (median pixel density) compared to untreated tumors: upregulation
pIGF-1R [6]
  level of pIGF-1R (pixel density normalized to phosphotyrosine loading control): upregulation
pIR [7]
  level of pIR (pixel density normalized to phosphotyrosine loading control): upregulation
Akt [8]; [12]
  phospho to total Akt versus vehicle control: continued inhibition
Akt [8]; [13]
  phospho to total Akt versus vehicle control: no longer inhibiting
Erk [9]; [12]
  phospho to total Erk versus vehicle control: continued inhibition
Erk [9]; [13]
  phospho to total Erk versus vehicle control: no longer inhibiting
Akt [10]; [12]
  phospho to total Akt versus vehicle control: continued inhibition
Akt [10]; [13]
  phospho to total Akt versus vehicle control: no longer inhibiting
Erk [11]; [12]
  phospho to total Erk versus vehicle control: continued inhibition
Erk [11]; [13]
  phospho to total Erk versus vehicle control: no longer inhibiting

## C[C@]1(O)C[C@@H](c2nc(-c3ccc4ccc(-c5ccccc5)nc4c3)c3c(N)nccn32)C1 [OSI-906, cis-3-[8-amino-1-(2-phenyl-quinolin-7-yl)-imidazo[1,5-a]pyrazin-3-yl]-1-methyl-cyclobutanol]
[2]; [14]
  time to tumor doubling, switching to OSI-906 single agent versus maintaining erlotinib single agent: no statistical difference
  time to two tumor doublings, switching to OSI-906 single agent versus maintaining erlotinib single agent: no statistical difference
